According to publication PMC8484140 (Targeted Oncology, 2021):

Key:
[1] = assay type: in vivo, human
[2] = system: HR+/HER2− advanced breast cancer; experiment: Efficacy by RECIST 1.1, Stage I/II patients; assay type: in vivo, human; conditions: for Clinical response: CR (number of patients) / Clinical response: PD (number of patients) / Clinical response: PR (number of patients) / Clinical response: SD (number of patients): with exemestane in Stage II
[3] = system: estrogen receptor-positive advanced breast cancer; conditions: entinostat plus exemestane; prolonged from 19.8; cited from earlier work
[4] = Safety evaluation; assay type: in vivo, human
[5] = additional 21 patients, entinostat 5 mg/week + exemestane 25 mg/day
[6] = Stage II, 3 mg/week + exemestane 25 mg/day, n=2
[7] = Stage II, 5 mg/week + exemestane 25 mg/day, n=14

## Nc1ccccc1NC(=O)c1ccc(CNC(=O)OCc2cccnc2)cc1 [Entinostat]
[1]; [5]
  Grade 3/4 anemia: 9.5%
  Grade 3/4 fatigue: 9.5%
  Grade 3/4 neutropenia: 38%
  Grade 3/4 thrombocytopenia: 9.5%
[1]; entinostat in combination with exemestane, as quoted in Discussion
  Occurrence rate of thrombocytopenia: 10%
[2]; 3 mg (n = 2)
  Clinical response: CR (number of patients): 0
  Clinical response: PD (number of patients): 1
  Clinical response: PR (number of patients): 0
  Clinical response: SD (number of patients): 1
[2]; 5 mg (n = 9)
  Clinical response: CR (number of patients): 0
  Clinical response: PD (number of patients): 6
  Clinical response: PR (number of patients): 2
  Clinical response: SD (number of patients): 1
[2]; 5 mg group, from first dose of entinostat, 95% CI: 78–201
  PFS: 85.5 days
[2]; 7 mg→5 mg (n = 3)
  Clinical response: CR (number of patients): 0
  Clinical response: PD (number of patients): 2
  Clinical response: PR (number of patients): 0
  Clinical response: SD (number of patients): 1
[2]; 14 evaluated patients, 2/14
  Overall response rate (ORR, CR+PR): 14.3%
[2]; 14 evaluated patients, all cohorts
  Patients achieving CR: none
[2]; 14 evaluated patients, all three treatment groups
  Patients with stable disease: Three
[2]; 14 evaluated patients, three groups
  Patients with PD: Nine
[2]; extended treatment stage, entinostat 3 or 5 mg/week + exemestane 25 mg/day
  Patients with stable disease (> 12 weeks): three
[3]
  Overall survival (OS): 28.1 months
[4]; Chinese patients
  Tolerability of entinostat in combination with exemestane: well tolerated
[4]; [6]
  AKP elevation, entinostat-related AE of all grades: 0 No. (%)
  ALT elevation, entinostat-related AE of all grades: 0 No. (%)
  AST elevation, entinostat-related AE of all grades: 0 No. (%)
  Abdominal pain, entinostat-related AE of all grades: 0 No. (%)
  Anemia, entinostat-related AE of all grades: 0 No. (%)
  Back pain, entinostat-related AE of all grades: 0 No. (%)
  Chest pain, entinostat-related AE of all grades: 0 No. (%)
  Creatine increase, entinostat-related AE of all grades: 0 No. (%)
  Creatinine phosphokinase increase, entinostat-related AE of all grades: 0 No. (%)
  Debilitation, entinostat-related AE of all grades: 0 No. (%)
  Diarrhea, entinostat-related AE of all grades: 0 No. (%)
  Fatigue, entinostat-related AE of all grades: 0 No. (%)
  Flatulence, entinostat-related AE of all grades: 0 No. (%)
  Headache, entinostat-related AE of all grades: 0 No. (%)
  Hypoalbuminemia, entinostat-related AE of all grades: 0 No. (%)
  Hypocalcemia, entinostat-related AE of all grades: 0 No. (%)
  Hypokalemia, entinostat-related AE of all grades: 0 No. (%)
  Hypoproteinemia, entinostat-related AE of all grades: 0 No. (%)
  LDH increase, entinostat-related AE of all grades: 0 No. (%)
  Leukopenia, entinostat-related AE of all grades: 0 No. (%)
  Limb pain, entinostat-related AE of all grades: 0 No. (%)
  Nausea, entinostat-related AE of all grades: 0 No. (%)
  Neutropenia, entinostat-related AE of all grades: 2 (100) No. (%)
  Palpitation, entinostat-related AE of all grades: 0 No. (%)
  Serum Ca^2+ decrease, entinostat-related AE of all grades: 0 No. (%)
  Serum Na+ decrease, entinostat-related AE of all grades: 0 No. (%)
  Serum albumin decrease, entinostat-related AE of all grades: 0 No. (%)
  Serum phosphate decrease, entinostat-related AE of all grades: 0 No. (%)
  Serum urea increase, entinostat-related AE of all grades: 0 No. (%)
  Thrombocytopenia, entinostat-related AE of all grades: 0 No. (%)
  Γ-GT elevation, entinostat-related AE of all grades: 0 No. (%)
  α-HBDH elevation, entinostat-related AE of all grades: 0 No. (%)
[4]; Stage II, 3 mg/week group + exemestane
  Grade 3 AE: no grade 3 AE occurred
[4]; Stage II, 5 mg entinostat group, 1/14
  CTCAE grade 3 arrhythmia requiring medical care: 7.1%
[4]; [7]
  AKP elevation, entinostat-related AE of all grades: 4 (28.6) No. (%)
  ALT elevation, entinostat-related AE of all grades: 0 No. (%)
  AST elevation, entinostat-related AE of all grades: 2 (14.3) No. (%)
  Abdominal pain, entinostat-related AE of all grades: 0 No. (%)
  Anemia, entinostat-related AE of all grades: 5 (35.7) No. (%)
  Back pain, entinostat-related AE of all grades: 0 No. (%)
  Chest pain, entinostat-related AE of all grades: 0 No. (%)
  Creatine increase, entinostat-related AE of all grades: 4 (28.6) No. (%)
  Creatinine phosphokinase increase, entinostat-related AE of all grades: 6 (42.9) No. (%)
  Debilitation, entinostat-related AE of all grades: 0 No. (%)
  Diarrhea, entinostat-related AE of all grades: 3 (21.4) No. (%)
  Fatigue, entinostat-related AE of all grades: 0 No. (%)
  Flatulence, entinostat-related AE of all grades: 0 No. (%)
  Headache, entinostat-related AE of all grades: 0 No. (%)
  Hypoalbuminemia, entinostat-related AE of all grades: 3 (21.4) No. (%)
  Hypocalcemia, entinostat-related AE of all grades: 2 (14.3) No. (%)
  Hypokalemia, entinostat-related AE of all grades: 2 (14.3) No. (%)
  Hypoproteinemia, entinostat-related AE of all grades: 3 (21.4) No. (%)
  LDH increase, entinostat-related AE of all grades: 2 (14.3) No. (%)
  Leukopenia, entinostat-related AE of all grades: 10 (71.4) No. (%)
  Limb pain, entinostat-related AE of all grades: 2 (14.3) No. (%)
  Nausea, entinostat-related AE of all grades: 0 No. (%)
  Neutropenia, entinostat-related AE of all grades: 10 (71.4) No. (%)
  Palpitation, entinostat-related AE of all grades: 0 No. (%)
  Serum Ca^2+ decrease, entinostat-related AE of all grades: 2 (14.3) No. (%)
  Serum Na+ decrease, entinostat-related AE of all grades: 2 (14.3) No. (%)
  Serum albumin decrease, entinostat-related AE of all grades: 2 (14.3) No. (%)
  Serum phosphate decrease, entinostat-related AE of all grades: 7 (50) No. (%)
  Serum urea increase, entinostat-related AE of all grades: 2 (14.3) No. (%)
  Thrombocytopenia, entinostat-related AE of all grades: 6 (42.9) No. (%)
  Γ-GT elevation, entinostat-related AE of all grades: 3 (21.4) No. (%)
  α-HBDH elevation, entinostat-related AE of all grades: 2 (14.3) No. (%)
[4]; Stage II, 5 mg/week group + exemestane
  Number of CTCAE grade ≥ 3 AEs: 38
